“And” between values parts separate entries of the source, which are not always exact repeats. Identical values can stand only once. Toxic doses and inconclusive results are not listed.
System: L1210 leukemia ip in BDF1 mice, survival T/C
Experiment: NCI In Vivo Anticancer Drug Screen. Data for tumor model L1210 Leukemia (intraperitoneal) in B6D2F1 (BDF1) mice
Conditions: endpoint: mean survival time, higher = longer survival
Method in brief: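 Read-out is survival time, reported as the treated-group measurement over the vehicle-control measurement.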

[1] = dose: 100.0 mg/kg/injection, schedule: Q04DX002 (ip), vehicle: Klucel (hydroxypropylcellulose) (HPC)
[2] = dose: 200.0 mg/kg/injection, schedule: Q04DX002 (ip), vehicle: Klucel (hydroxypropylcellulose) (HPC)
[3] = dose: 400.0 mg/kg/injection, schedule: Q04DX002 (ip), vehicle: Klucel (hydroxypropylcellulose) (HPC)
[4] = dose: 100.0 mg/kg/injection, schedule: Q04DX003 (ip), vehicle: Klucel (hydroxypropylcellulose) (HPC)
[5] = dose: 200.0 mg/kg/injection, schedule: Q04DX003 (ip), vehicle: Klucel (hydroxypropylcellulose) (HPC)
[6] = dose: 400.0 mg/kg/injection, schedule: Q04DX003 (ip), vehicle: Klucel (hydroxypropylcellulose) (HPC)
[7] = dose: 100.0 mg/kg/injection, schedule: Q04DX003 (ip), vehicle: saline with Tween-80
[8] = dose: 200.0 mg/kg/injection, schedule: Q04DX003 (ip), vehicle: saline with Tween-80
[9] = dose: 400.0 mg/kg/injection, schedule: Q04DX003 (ip), vehicle: saline with Tween-80
[10] = dose: 50.0 mg/kg/injection, schedule: Q01DX009 (ip), vehicle: saline with Tween-80
[11] = dose: 100.0 mg/kg/injection, schedule: Q01DX009 (ip), vehicle: saline with Tween-80
[12] = dose: 200.0 mg/kg/injection, schedule: Q01DX009 (ip), vehicle: saline with Tween-80
[13] = dose: 100.0 mg/kg/injection, schedule: Q01DX009 (ip), vehicle: Klucel (hydroxypropylcellulose) (HPC)
[14] = dose: 200.0 mg/kg/injection, schedule: Q01DX009 (ip), vehicle: Klucel (hydroxypropylcellulose) (HPC)
[15] = dose: 400.0 mg/kg/injection, schedule: Q01DX009 (ip), vehicle: Klucel (hydroxypropylcellulose) (HPC)
[16] = dose: 50.0 mg/kg/injection, schedule: Q04DX002 (ip), vehicle: Klucel (hydroxypropylcellulose) (HPC)
[17] = dose: 400.0 mg/kg/injection, schedule: Q01DX009 (ip), vehicle: saline with Tween-80

## O=C(COc1ccc(F)cc1)N(CCO)CCO
[1]
  T/C: 96 % of control
[2]
  T/C: 92 % of control
[3]
  T/C: 114 % of control

## CC(=O)OCC1OC(OC(C)=O)C(NC(=O)N(C)c2ccccc2)C(OC(C)=O)C1OC(C)=O (stereo not drawn)
[4]
  T/C: 105 % of control
[5]
  T/C: 105 % of control
[6]
  T/C: 105 % of control

## FC(F)(F)COC(Br)CBr (stereo not drawn)
dose: 15.0 mg/kg/injection, schedule: Q01DX001 (ip), vehicle: carboxymethylcellulose (CMC)
  T/C: 101 % of control
dose: 30.0 mg/kg/injection, schedule: Q01DX001 (ip), vehicle: carboxymethylcellulose (CMC)
  T/C: 93 % of control
dose: 60.0 mg/kg/injection, schedule: Q01DX001 (ip), vehicle: carboxymethylcellulose (CMC)
  T/C: 95 % of control

## O=S(=O)(/C=N\N=P(c1ccccc1)(c1ccccc1)c1ccccc1)c1ccccc1-c1ccccc1
[7]
  T/C: 109 % of control
[8]
  T/C: 98 % of control
[9]
  T/C: 93 % of control

## S=C(Nc1ccccn1)Nc1ccccn1
[10]
  T/C: 96 % of control
dose: 50.0 mg/kg/injection, schedule: Q04DX003 (ip), vehicle: Klucel (hydroxypropylcellulose) (HPC)
  T/C: 94 % of control
dose: 50.0 mg/kg/injection, schedule: Q04DX003 (ip), vehicle: saline with Tween-80
  T/C: 96 % of control
dose: 100.0 mg/kg/injection, schedule: Q01DX001 (ip), vehicle: carboxymethylcellulose (CMC)
  T/C: 95 % of control
[11]
  T/C: 103 % of control
[7]
  T/C: 101 % of control
dose: 200.0 mg/kg/injection, schedule: Q01DX001 (ip), vehicle: carboxymethylcellulose (CMC)
  T/C: 95 % of control
[12]
  T/C: 96 % of control
[5]
  T/C: 87 % of control
[8]
  T/C: 184 % of control
dose: 400.0 mg/kg/injection, schedule: Q01DX001 (ip), vehicle: carboxymethylcellulose (CMC)
  T/C: 92 % of control

## O/N=C\CCC/C=N/O
[13]
  T/C: 98 % of control
[4]
  T/C: 100 % of control
[14]
  T/C: 91 % of control
[5]
  T/C: 94 % of control
[6]
  T/C: 103 % of control

## O=C(Nc1ccccc1)N(C1CCCCC1)C1CCCCC1
[13]
  T/C: 86 % of control
[14]
  T/C: 88 % of control
[15]
  T/C: 89 % of control

## CN=C(N)c1ccc(NC(=O)Nc2ccc(NC(=O)Nc3ccc(C(N)=NC)cc3)cc2)cc1
dose: 50.0 mg/kg/injection, schedule: Q01DX Z (oral), vehicle: saline
  T/C: 95 % of control
dose: 60.0 mg/kg/injection, schedule: Q01DX Z (ip), vehicle: saline
  T/C: 157 % of control
dose: 100.0 mg/kg/injection, schedule: Q01DX Z (oral), vehicle: saline
  T/C: 89 % of control
dose: 120.0 mg/kg/injection, schedule: Q01DX Z (ip), vehicle: saline
  T/C: 205 % of control
dose: 200.0 mg/kg/injection, schedule: Q01DX Z (oral), vehicle: saline
  T/C: 95 % of control
dose: 240.0 mg/kg/injection, schedule: Q01DX Z (ip), vehicle: saline
  T/C: 108 % of control
dose: 400.0 mg/kg/injection, schedule: Q01DX Z (oral), vehicle: saline
  T/C: 96 % of control
dose: 480.0 mg/kg/injection, schedule: Q01DX Z (ip), vehicle: saline
  T/C: 90 % of control

## CSc1nc2ccc([N+](=O)[O-])cc2s1
[1]
  T/C: 93 % of control
[2]
  T/C: 97 % of control
[3]
  T/C: 101 % of control

## Nc1nc2c(=O)[nH]c(=O)[nH]c2n1C1OC(CO)C(O)C1O (stereo not drawn)
dose: 100.0 mg/kg/injection, schedule: Q01DX001 (ip), vehicle: saline
  T/C: 102 % of control
dose: 200.0 mg/kg/injection, schedule: Q01DX001 (ip), vehicle: saline
  T/C: 111 % of control

## CCCCc1ccc(O)c(O)c1O
dose: 50.0 mg/kg/injection, schedule: Q01DX001 (sc), vehicle: olive oil, sesame oil, peanut oil
  T/C: 117 % of control
dose: 100.0 mg/kg/injection, schedule: Q01DX001 (sc), vehicle: olive oil, sesame oil, peanut oil
  T/C: 101 % of control and 106 % of control
dose: 200.0 mg/kg/injection, schedule: Q01DX001 (sc), vehicle: olive oil, sesame oil, peanut oil
  T/C: 101 % of control and 105 % of control
dose: 400.0 mg/kg/injection, schedule: Q01DX001 (sc), vehicle: olive oil, sesame oil, peanut oil
  T/C: 108 % of control

## O=S(=O)(OCCCC1CC2C=CC1C2)c1ccc(Br)cc1 (stereo not drawn)
dose: 75.0 mg/kg/injection, schedule: Q01DX001 (ip), vehicle: carboxymethylcellulose (CMC)
  T/C: 104 % of control
dose: 75.0 mg/kg/injection, schedule: Q04DX003 (ip), vehicle: carboxymethylcellulose (CMC)
  T/C: 89 % of control
dose: 150.0 mg/kg/injection, schedule: Q01DX001 (ip), vehicle: carboxymethylcellulose (CMC)
  T/C: 91 % of control
dose: 150.0 mg/kg/injection, schedule: Q04DX003 (ip), vehicle: carboxymethylcellulose (CMC)
  T/C: 100 % of control
dose: 300.0 mg/kg/injection, schedule: Q04DX003 (ip), vehicle: carboxymethylcellulose (CMC)
  T/C: 98 % of control

## CNC(=O)Oc1ccc(Nc2ccccc2)cc1
[13]
  T/C: 97 % of control and 104 % of control
[1]
  T/C: 105 % of control and 88 % of control
[14]
  T/C: 100 % of control and 104 % of control
[2]
  T/C: 97 % of control and 98 % of control
[15]
  T/C: 95 % of control and 104 % of control
[3]
  T/C: 93 % of control and 108 % of control

## CCOC(=O)CN1C(=O)NC(C)(c2ccc(Cl)cc2)C1=O (stereo not drawn)
[7]
  T/C: 106 % of control
[8]
  T/C: 98 % of control
[9]
  T/C: 96 % of control

## CN(Cc1cc(Cl)cc(Cl)c1O)C1CC2CCC1(C)C2(C)C (stereo not drawn)
dose: 25.0 mg/kg/injection, schedule: Q04DX002 (ip), vehicle: Klucel (hydroxypropylcellulose) (HPC)
  T/C: 96 % of control
[16]
  T/C: 103 % of control
[13]
  T/C: 90 % of control
[1]
  T/C: 92 % of control
[14]
  T/C: 88 % of control
[15]
  T/C: 103 % of control

## COc1ccc(C(=O)N/N=C/c2ccc(C)cc2)cc1
[13]
  T/C: 102 % of control
[14]
  T/C: 102 % of control
[15]
  T/C: 105 % of control

## COC(=O)c1noc2cc([N+](=O)[O-])ccc12
[11]
  T/C: 96 % of control
[12]
  T/C: 92 % of control
[17]
  T/C: 90 % of control

## O=C(Nc1cc(NC(=O)Oc2ccccc2)cc([N+](=O)[O-])c1)Oc1ccccc1
[7]
  T/C: 96 % of control
[8]
  T/C: 103 % of control
[9]
  T/C: 88 % of control

## Oc1c(Br)cc(Br)cc1C=NCC1CCC(CN=Cc2cc(Br)cc(Br)c2O)CC1 (stereo not drawn)
[11]
  T/C: 92 % of control
dose: 100.0 mg/kg/injection, schedule: Q04DX002 (ip), vehicle: saline with Tween-80
  T/C: 110 % of control and 90 % of control
dose: 200.0 mg/kg/injection, schedule: Q04DX002 (ip), vehicle: saline with Tween-80
  T/C: 96 % of control and 90 % of control
[17]
  T/C: 92 % of control and 94 % of control
dose: 400.0 mg/kg/injection, schedule: Q04DX002 (ip), vehicle: saline with Tween-80
  T/C: 106 % of control and 90 % of control

## C/C(=C/c1c(C)[nH]c(=O)[nH]c1=O)C(=O)O
dose: 100.0 mg/kg/injection, schedule: Q01DX009 (ip), vehicle: saline
  T/C: 92 % of control
dose: 100.0 mg/kg/injection, schedule: Q04DX003 (ip), vehicle: saline
  T/C: 98 % of control
dose: 200.0 mg/kg/injection, schedule: Q01DX009 (ip), vehicle: saline
  T/C: 95 % of control
dose: 200.0 mg/kg/injection, schedule: Q04DX003 (ip), vehicle: saline
  T/C: 104 % of control
dose: 400.0 mg/kg/injection, schedule: Q04DX003 (ip), vehicle: saline
  T/C: 106 % of control

## COP(=S)(N/N=C/c1ccccn1)OC
[7]
  T/C: 106 % of control
[8]
  T/C: 97 % of control
[9]
  T/C: 108 % of control

## O=Cc1c(Cl)n(-c2ccccc2)c2ccccc12
[16]
  T/C: 97 % of control
[1]
  T/C: 97 % of control
[2]
  T/C: 87 % of control

## O=C(NC/C=C/Br)C(F)(F)F
dose: 100.0 mg/kg/injection, schedule: Q01DX001 (ip), vehicle: saline with Tween-80
  T/C: 118 % of control
[7]
  T/C: 98 % of control
dose: 200.0 mg/kg/injection, schedule: Q01DX001 (ip), vehicle: saline with Tween-80
  T/C: 96 % of control
[8]
  T/C: 95 % of control
dose: 400.0 mg/kg/injection, schedule: Q01DX001 (ip), vehicle: saline with Tween-80
  T/C: 95 % of control
[9]
  T/C: 97 % of control

## N#CC(c1ccc(Br)cc1)C1c2ccccc2-c2ccccc21 (stereo not drawn)
dose: 50.0 mg/kg/injection, schedule: Q01DX001 (ip), vehicle: Klucel (hydroxypropylcellulose) (HPC)
  T/C: 93 % of control
dose: 100.0 mg/kg/injection, schedule: Q01DX001 (ip), vehicle: Klucel (hydroxypropylcellulose) (HPC)
  T/C: 91 % of control
dose: 200.0 mg/kg/injection, schedule: Q01DX001 (ip), vehicle: Klucel (hydroxypropylcellulose) (HPC)
  T/C: 86 % of control

## CC(=O)Nc1ccc(/C=N\NC(=S)Nc2ccccc2)cc1
[13]
  T/C: 107 % of control
[14]
  T/C: 93 % of control
[15]
  T/C: 94 % of control

## C1CC2CCC(N3CCOCC3)C(C1)O2 (stereo not drawn)
[10]
  T/C: 102 % of control
[11]
  T/C: 102 % of control
[12]
  T/C: 102 % of control

Reference: PubChem BioAssay AID248 (DTP/NCI, 2004)
